Patent US6610883B1, “Compounds having selective activity for retinoid X receptors, and means for modulation of processes mediated by retinoid X receptors” (Ligand Pharmaceuticals, Inc., priority 1992, dated 2003)
Read-outs that look alike come from different tables or passages of the source.

What was measured:
Format in all cases: cell-based
[1] = target: T1, RARβ (Homo sapiens, UniProt P10826); experiment: Co-transfection (cis-trans) assay in CV-1 cells, RARβ; parameters: expressed in transfected cells; host or cells: CV-1 (monkey kidney); conditions: for Emax at 10 µM: CV-1, maximal response relative to all-trans-retinoic acid at 10^−5 M, read-out: Efficacy; for EC50: CV-1 cells, luciferase reporter, 36 h, read-out: Potency
T1 sequence (P10826 1-455): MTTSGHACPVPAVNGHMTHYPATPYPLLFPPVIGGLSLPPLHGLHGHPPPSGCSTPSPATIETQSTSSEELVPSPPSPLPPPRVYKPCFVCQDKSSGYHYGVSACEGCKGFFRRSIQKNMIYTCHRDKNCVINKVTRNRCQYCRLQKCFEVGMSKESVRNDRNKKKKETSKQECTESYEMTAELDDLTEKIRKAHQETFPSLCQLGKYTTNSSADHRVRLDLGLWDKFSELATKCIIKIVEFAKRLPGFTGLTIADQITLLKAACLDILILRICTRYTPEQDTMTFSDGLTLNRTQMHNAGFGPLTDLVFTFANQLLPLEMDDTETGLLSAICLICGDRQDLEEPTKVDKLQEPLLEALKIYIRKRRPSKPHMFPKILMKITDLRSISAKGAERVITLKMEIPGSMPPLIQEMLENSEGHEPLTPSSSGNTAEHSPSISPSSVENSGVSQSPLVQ
Description: (§1) The co-transfection assay provides a mechanism to evaluate the ability of a compound to modulate the transcription response initiated by an intracellular receptor. […] Berger, et al., J. Steroid Biochem Molec.
(§2) Briefly, the co-transfection assay involves the introduction of two plasmids by transient transfection into a retinoid receptor-negative mammalian cell background. The first plasmid contains a retinoid receptor cDNA and directs constitutive expression of the encoded receptor. The second plasmid contains a cDNA that encodes for a readily quantifiable protein, e.g., firefly luciferase or chloramphenicol acetyl transferase (CAT), under control of a promoter containing a retinoid acid response element, which confers retinoid dependence on the transcription of the reporter. In this co-transfection assay, all retinoid receptors respond to all-trans-retinoic acid in a similar fashion. This assay can be used to accurately measure efficacy and potency of retinoic acid and synthetic retinoids as ligands that interact with the individual retinoid receptor subtypes.
(§3) Accordingly, synthetic retinoid compounds of the current invention were evaluated for their interaction with retinoid receptor subtypes using the co-transfection assay in which CV-1 cells were co-transfected with one of the retinoid receptor subtypes, a reporter construct, and an internal control to allow normalization of the response for transfection efficiency. The following example is illustrative.
(§4) Retinoids: All-tans-retinoic acid (RA) and 13-cis-retinoic acid (13-cis-RA) were obtained from Sigma. […] Retinoids were dissolved in dimethylsulfoxide for use in the transcriptional activation assays.
(§5) Co-transfection Assay In CV-1 Cells: A monkey kidney cell line, CV-1, was used in the cis-trans assay. Cells were transfected with two plasmids. […] The cis-vector contains an easily assayable gene product, in this case the firefly luciferase, coupled to a retinoid-responsive promoter, i.e., an RARE or RXRE. Addition of retinoic acid or an appropriate synthetic retinoid results in the formation of a retinoid-RAR or -RXR complex that activates the expression of luciferase gene, causing light to be emitted from cell extracts. The level of luciferase activity is directly proportional to the effectiveness of the retinoid-receptor complex in activating gene expression. This sensitive and reproducible co-transfection approach permits the identification of retinoids that interact with the different receptor isoforms.
(§6) Cells were cultured in DMEM supplemented with 10% charcoal resin-stripped fetal bovine serum, and experiments were conducted in 96-well plates. […] Cells were transfected for 6 h and then washed to remove the precipitate. The cells were then incubated for 36 h with or without retinoid. After the transfection, all subsequent steps were performed on a Beckman Biomek Automated Workstation. […] All determinations were performed in triplicate in two independent experiments and were normalized for transfection efficiency by using β-galactosidase as the internal control. […] Efficacy values less than 5% are not statistically different than the 0% background.

[2] = target: T2, RARα (Homo sapiens, UniProt P10276); experiment: Co-transfection (cis-trans) assay in CV-1 cells, RARα; parameters: expressed in transfected cells; host or cells: CV-1 (monkey kidney); conditions: for Emax at 10 µM: CV-1, maximal response relative to all-trans-retinoic acid at 10^−5 M, read-out: Efficacy; for EC50: CV-1 cells, luciferase reporter, 36 h, read-out: Potency
T2 sequence (P10276 1-462): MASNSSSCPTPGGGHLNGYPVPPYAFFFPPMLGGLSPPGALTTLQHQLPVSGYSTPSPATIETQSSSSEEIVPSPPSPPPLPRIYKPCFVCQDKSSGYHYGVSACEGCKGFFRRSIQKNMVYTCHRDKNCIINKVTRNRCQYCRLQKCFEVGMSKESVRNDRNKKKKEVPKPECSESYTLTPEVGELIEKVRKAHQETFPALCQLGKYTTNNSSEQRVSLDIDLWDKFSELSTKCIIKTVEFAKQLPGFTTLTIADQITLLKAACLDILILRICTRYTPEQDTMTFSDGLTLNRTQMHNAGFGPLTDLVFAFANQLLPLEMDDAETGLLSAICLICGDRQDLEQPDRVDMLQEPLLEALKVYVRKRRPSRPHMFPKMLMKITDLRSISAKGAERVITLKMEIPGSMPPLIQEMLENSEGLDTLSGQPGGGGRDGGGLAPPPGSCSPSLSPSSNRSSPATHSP
Description: as §1, §2, §3, §4, §5, §6

[3] = target: T3, RXRγ (Mus musculus, UniProt P28705); experiment: Co-transfection (cis-trans) assay in CV-1 cells, RXRγ; conditions: for Emax at 10 µM: CV-1, maximal response relative to all-trans-retinoic acid at 10^−5 M, read-out: Efficacy
T3 construct: expressed in transfected cells; host or cells: CV-1 (monkey kidney)
T3 sequence (P28705 1-463): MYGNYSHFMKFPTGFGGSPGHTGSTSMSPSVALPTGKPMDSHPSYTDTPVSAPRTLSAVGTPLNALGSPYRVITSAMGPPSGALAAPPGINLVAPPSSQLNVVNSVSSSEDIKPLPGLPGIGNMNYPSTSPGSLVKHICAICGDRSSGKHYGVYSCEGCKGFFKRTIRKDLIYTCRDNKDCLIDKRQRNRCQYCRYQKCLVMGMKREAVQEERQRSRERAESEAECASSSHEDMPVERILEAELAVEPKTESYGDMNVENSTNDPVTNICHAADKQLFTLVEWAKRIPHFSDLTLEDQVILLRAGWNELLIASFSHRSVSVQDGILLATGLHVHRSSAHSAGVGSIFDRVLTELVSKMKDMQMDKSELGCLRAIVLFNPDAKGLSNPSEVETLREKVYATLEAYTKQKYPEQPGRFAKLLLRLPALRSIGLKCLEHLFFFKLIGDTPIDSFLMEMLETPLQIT
Description: as §1, §2, §3, §4, §5, §6

[4] = RXRγ, CV-1 cells, luciferase reporter, 36 h, read-out: Potency

Emax at 10 µM [1] [%] | EC50 [1] [nM] | Emax at 10 µM [2] [%] | EC50 [2] [nM] | Emax at 10 µM ([3]; RXRγ) [%] | EC50 [3, 4] [nM] | SMILES | EC50 [3] [nM]
55 | 75 | 11 | > 10000 | 97 | 24 | CC(/C=C/C=C(\c1ccc2c(c1)C(C)(C)CCC2(C)C)C(C)C)=C\C(=O)O [Compound 123, (2E,4E,6Z)-7-(5,5,8,8-tetramethyl-5,6,7,8-tetrahydro-2-naphthyl)-3,8-dimethyl-nona-2,4,6-trienoic acid] | 
63 | 140 | < 2 | > 10000 | 71 | 9 | CC1=C(/C=C/C(=C\C=C\C(C)=C\C(=O)O)C(C)(C)C)C(C)(C)CCC1 [Compound 77, 3-methyl-7-t-butyl-9-(2,6,6-trimethyl-1-cyclohexen-1-yl)-2E,4E,6Z,8E-nonatetranoic acid] | 
40 | 180 | 12 | > 10000 | 115 | 10 | C/C(=C/C=C/C(C)=C/C(=O)O)c1cc2c(cc1C)C(C)(C)CCC2(C)C [Compound 128, (2E,4E,6Z)-7-(3,5,5,8,8-pentamethyl-5,6,7,8-tetrahydro-2-naphthyl)-3-methyl-octa-2,4,6-trienoic acid] | 
5 | > 10000 | 7 | > 10000 | 85 | 7 | CC(/C=C/C1(c2cc3c(cc2C)C(C)(C)CCC3(C)C)CC1)=C\C(=O)O [Compound 104, (2E,4E)-3-methyl-5-[1-(3,5,5,8,8-pentamethyl-5,6,7,8-tetrahydro-2-naphthyl)cyclopropyl]penta-2,4-dienoic acid] | 

Further lines, the molecule ahead of its results:

SMILES | Emax at 10 µM [1] [%] | EC50 [1] [nM] | Emax at 10 µM [2] [%] | EC50 [2] [nM] | Emax at 10 µM ([3]; RXRγ) [%] | EC50 [3, 4] [nM] | EC50 [3] [nM]
CCCC(=C/C=C/C(C)=C/C(=O)O)/C=C/C1=C(C)CCCC1(C)C [Compound 74, 3-methyl-7-propyl-9-(2,6,6-trimethyl-1-cyclohexen-1-yl)-2E,4E,6Z,8E-nonatetranoic acid] | 50 | 38 | < 2 | > 10000 | 85 | 12 | 
Cc1cc2c(cc1C(=O)c1ccc(C(=O)Nc3ccc(O)cc3)cc1)C(C)(C)CCC2(C)C [3-Methyl-TTNCHBP, 4-[(3,5,5,8,8-pentamethyl-5,6,7,8-tetrahydro-2-naphthyl)carbonyl]-N-(4-hydroxyphenyl)benzamide] | 7 | > 10000 | < 2 | > 10000 | 128 | 300 | 
CC1=C(C=CC2CCCCC2/C=C/C(C)=C/C(=O)O)C(C)(C)CCC1 (stereo not drawn) [Compound 100, 3-methyl-5-(2-[2-(2,6,6-trimethylcyclohexen-1-yl)ethenyl]cyclohexyl)-2E,4E-pentadienoic acid] | 5 | > 10000 | 9 | > 10000 | 72 | 106 | 
CC1=C(/C=C/C(=C\C=C\C(C)=C\C(=O)O)C(C)C)C(C)(C)CCC1 [Compound 75, 3-methyl-7-isopropyl-9-(2,6,6-trimethyl-1-cyclohexen-1-yl)-2E,4E,6Z,8E-nonatetranoic acid] | 58 | 180 | < 2 | > 10000 | 106 | 11 | 
CC1=C(/C=C/C2(C/C=C/C(C)=C/C(=O)O)CC2)C(C)(C)CCC1 [Compound 110] | 29 | 446 | 9 | > 10000 | 87 | 198 | 
C=C(c1ccc(C(=O)O)cc1)c1cc2c(cc1Br)C(C)(C)CCC2(C)C [3-Bromo-TTNEB, 4-[1-(3-bromo-5,5,8,8-tetramethyl-5,6,7,8-tetrahydro-2-naphthyl)ethenyl]benzoic acid] | 18 |  | 3 |  |  |  | 52
C=C(c1ccc(C(=O)Nc2ccc(O)cc2)cc1)c1cc2c(cc1C)C(C)(C)CCC2(C)C [3-Methyl-TTNEHBP (63), 4-[1-(3,5,5,8,8-pentamethyl-5,6,7,8-tetrahydro-2-naphthyl)ethenyl]-N-(4-hydroxyphenyl)benzamide] | 25 | 1900 | < 2 | > 10000 | 163 | 48 | 
